Assay results reported in ChEMBL document CHEMBL4823249, “Discovery of a Pyrimidinedione Derivative as a Potent and Orally Bioavailable Axl Inhibitor” (J Med Chem, 2021).
Calls of active or inactive are those of the source. No cut-off for these calls is given here.

How the values were obtained:
[1] = biological target: Platelet-derived growth factor receptor beta (Homo sapiens, UniProt P09619); test: Inhibition of human PDGFRbeta (557 to end residues) using poly(Glu, Tyr) 4:1 as substrate measured after 40 mins in presence of [gamma33P]ATP by scintillation counting based radiometry assay
[2] = biological target: T1, Tyrosine-protein kinase receptor UFO (Mus musculus) (UniProt Q00993); test: Inhibition of AXL in mouse BaF3/TEL-AXL cells assessed as reduction in Gas6-induced phosphorylation of AXL at 0.5 to 50 nM preincubated for 2 hrs followed by Gas6 stimulation for 15 mins by Western blotting analysis; assay type: cell-based; details: dose 0.5-50 nM
T1 sequence (whole entry): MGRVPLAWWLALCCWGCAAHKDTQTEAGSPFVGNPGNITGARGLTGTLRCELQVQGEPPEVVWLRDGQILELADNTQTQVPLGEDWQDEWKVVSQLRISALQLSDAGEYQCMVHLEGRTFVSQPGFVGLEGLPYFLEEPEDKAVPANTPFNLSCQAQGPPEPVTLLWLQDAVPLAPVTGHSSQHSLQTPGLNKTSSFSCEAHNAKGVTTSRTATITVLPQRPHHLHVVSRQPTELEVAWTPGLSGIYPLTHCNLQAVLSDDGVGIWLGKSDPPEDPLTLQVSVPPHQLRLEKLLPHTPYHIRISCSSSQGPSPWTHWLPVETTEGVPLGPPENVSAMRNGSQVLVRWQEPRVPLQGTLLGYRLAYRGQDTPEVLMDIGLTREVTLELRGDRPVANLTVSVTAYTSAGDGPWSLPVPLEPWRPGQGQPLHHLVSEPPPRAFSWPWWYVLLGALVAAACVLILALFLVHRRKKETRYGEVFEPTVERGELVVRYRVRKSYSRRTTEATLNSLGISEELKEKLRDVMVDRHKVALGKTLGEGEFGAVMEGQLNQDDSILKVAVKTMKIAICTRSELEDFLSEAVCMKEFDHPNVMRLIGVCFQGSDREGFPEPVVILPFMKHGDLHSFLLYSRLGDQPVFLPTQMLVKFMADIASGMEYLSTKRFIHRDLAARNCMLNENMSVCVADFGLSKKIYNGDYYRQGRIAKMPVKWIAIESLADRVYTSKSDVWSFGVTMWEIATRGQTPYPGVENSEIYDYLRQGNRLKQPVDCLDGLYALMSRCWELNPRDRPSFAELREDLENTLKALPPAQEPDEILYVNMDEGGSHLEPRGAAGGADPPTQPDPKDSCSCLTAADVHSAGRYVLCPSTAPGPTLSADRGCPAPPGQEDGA

[3] = biological target: T2, Hepatocyte growth factor receptor (Homo sapiens, UniProt P08581); test: Inhibition of recombinant human MET (974 to end residues) using KKKGQEEEYVFIE as substrate incubated for 40 mins in presence of [gamma-33ATP by scintillation counting based radiometry assay
[4] = biological target: T2, Hepatocyte growth factor receptor; test: Inhibition of MET signaling in human MKN45 cells assessed as reduction in phosphorylation of AKT after 2 hrs by Western blotting analysis; assay type: cell-based; details: MKN-45, dose 10-100 nM
[5] = biological target: Ribosomal protein S6 kinase alpha-1 (Homo sapiens, UniProt Q15418); test: Inhibition of recombinant full length human Rsk1 using KKKNRTLSVA as substrate incubated for 40 mins in presence of [gamma33P]ATP by scintillation counting based radiometry assay
[6] = biological target: T1, Tyrosine-protein kinase receptor UFO (Mus musculus); test: Inhibition of AXL in mouse BaF3/TEL-AXL cells assessed as reduction in phosphorylation of AXL at 1 to 15 nM after 2 hrs by Western blotting analysis; assay type: cell-based; details: dose 1-15 nM
RT-112 = test: Antiproliferative activity against human RT-112 cells incubated for 72 hrs by SRB or CCK8 assay; assay type: functional, cell-based; details: RT-112, 72 h
[7] = biological target: Fibroblast growth factor receptor 1 (Homo sapiens, UniProt P11362); test: Inhibition of recombinant human FGFR1 (456 to 765 residues) using KKKSPGEYVNIEF as substrate incubated for 40 mins in presence of [gamma-33ATP] by radiometric scintillation counting analysis
BT-549 = test: Antiproliferative activity against human BT-549 cells incubated for 72 hrs by SRB or CCK8 assay; assay type: functional, cell-based; details: BT-549, 72 h
[8] = Half life in Sprague-Dawley rat at 3 mg/kg, po measured upto 24 hrs by LC-MS analysis; assay type: ADME, organism-based; details: in vivo
[9] = biological target: Insulin-like growth factor 1 receptor (Homo sapiens, UniProt P08069); test: Inhibition of human IGF1R (959 to end residues) using KKKSPGEYVNIEFG as substrate after 40 mins in presence of [gamma-33ATP] by scintillation counting based radiometry assay
[10] = biological target: T3, Tyrosine-protein kinase receptor UFO (Homo sapiens, UniProt P30530); test: Inhibition of AXL (unknown origin) using poly [Glu, Tyr] 4:1 as substrate incubated for 60 mins in presence of ATP by ELISA
T3 sequence (P30530 whole entry): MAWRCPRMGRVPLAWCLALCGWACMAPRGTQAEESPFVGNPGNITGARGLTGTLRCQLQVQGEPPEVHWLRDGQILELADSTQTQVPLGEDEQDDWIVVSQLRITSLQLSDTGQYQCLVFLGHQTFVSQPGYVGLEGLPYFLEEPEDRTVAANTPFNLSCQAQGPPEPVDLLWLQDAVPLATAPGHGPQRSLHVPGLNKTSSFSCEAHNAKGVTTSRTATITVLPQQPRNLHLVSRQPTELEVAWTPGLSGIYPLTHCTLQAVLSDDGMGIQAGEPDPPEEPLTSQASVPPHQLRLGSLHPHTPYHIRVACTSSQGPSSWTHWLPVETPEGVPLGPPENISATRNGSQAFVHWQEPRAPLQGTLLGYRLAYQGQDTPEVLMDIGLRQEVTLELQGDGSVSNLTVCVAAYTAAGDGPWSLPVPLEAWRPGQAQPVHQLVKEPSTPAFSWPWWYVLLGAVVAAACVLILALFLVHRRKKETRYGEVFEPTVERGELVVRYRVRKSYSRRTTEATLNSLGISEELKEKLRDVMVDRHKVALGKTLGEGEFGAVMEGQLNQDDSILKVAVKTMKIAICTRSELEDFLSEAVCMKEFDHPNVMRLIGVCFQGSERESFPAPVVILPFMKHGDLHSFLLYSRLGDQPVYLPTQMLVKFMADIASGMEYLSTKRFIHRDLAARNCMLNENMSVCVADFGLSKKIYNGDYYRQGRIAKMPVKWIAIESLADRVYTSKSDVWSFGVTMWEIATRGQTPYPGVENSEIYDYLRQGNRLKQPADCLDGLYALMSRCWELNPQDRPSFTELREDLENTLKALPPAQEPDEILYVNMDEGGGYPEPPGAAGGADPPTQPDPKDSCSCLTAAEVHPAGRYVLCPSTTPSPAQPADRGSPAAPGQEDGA

[11] = biological target: Tyrosine-protein kinase Mer (Homo sapiens, UniProt Q12866); test: Inhibition of recombinant human MER (557 to 882 residues) using GGMEDIYFEFMGG as substrate incubated for 40 mins in presence of [gamma-33ATP by scintillation counting based radiometry assay

T2 sequence (P08581 whole entry): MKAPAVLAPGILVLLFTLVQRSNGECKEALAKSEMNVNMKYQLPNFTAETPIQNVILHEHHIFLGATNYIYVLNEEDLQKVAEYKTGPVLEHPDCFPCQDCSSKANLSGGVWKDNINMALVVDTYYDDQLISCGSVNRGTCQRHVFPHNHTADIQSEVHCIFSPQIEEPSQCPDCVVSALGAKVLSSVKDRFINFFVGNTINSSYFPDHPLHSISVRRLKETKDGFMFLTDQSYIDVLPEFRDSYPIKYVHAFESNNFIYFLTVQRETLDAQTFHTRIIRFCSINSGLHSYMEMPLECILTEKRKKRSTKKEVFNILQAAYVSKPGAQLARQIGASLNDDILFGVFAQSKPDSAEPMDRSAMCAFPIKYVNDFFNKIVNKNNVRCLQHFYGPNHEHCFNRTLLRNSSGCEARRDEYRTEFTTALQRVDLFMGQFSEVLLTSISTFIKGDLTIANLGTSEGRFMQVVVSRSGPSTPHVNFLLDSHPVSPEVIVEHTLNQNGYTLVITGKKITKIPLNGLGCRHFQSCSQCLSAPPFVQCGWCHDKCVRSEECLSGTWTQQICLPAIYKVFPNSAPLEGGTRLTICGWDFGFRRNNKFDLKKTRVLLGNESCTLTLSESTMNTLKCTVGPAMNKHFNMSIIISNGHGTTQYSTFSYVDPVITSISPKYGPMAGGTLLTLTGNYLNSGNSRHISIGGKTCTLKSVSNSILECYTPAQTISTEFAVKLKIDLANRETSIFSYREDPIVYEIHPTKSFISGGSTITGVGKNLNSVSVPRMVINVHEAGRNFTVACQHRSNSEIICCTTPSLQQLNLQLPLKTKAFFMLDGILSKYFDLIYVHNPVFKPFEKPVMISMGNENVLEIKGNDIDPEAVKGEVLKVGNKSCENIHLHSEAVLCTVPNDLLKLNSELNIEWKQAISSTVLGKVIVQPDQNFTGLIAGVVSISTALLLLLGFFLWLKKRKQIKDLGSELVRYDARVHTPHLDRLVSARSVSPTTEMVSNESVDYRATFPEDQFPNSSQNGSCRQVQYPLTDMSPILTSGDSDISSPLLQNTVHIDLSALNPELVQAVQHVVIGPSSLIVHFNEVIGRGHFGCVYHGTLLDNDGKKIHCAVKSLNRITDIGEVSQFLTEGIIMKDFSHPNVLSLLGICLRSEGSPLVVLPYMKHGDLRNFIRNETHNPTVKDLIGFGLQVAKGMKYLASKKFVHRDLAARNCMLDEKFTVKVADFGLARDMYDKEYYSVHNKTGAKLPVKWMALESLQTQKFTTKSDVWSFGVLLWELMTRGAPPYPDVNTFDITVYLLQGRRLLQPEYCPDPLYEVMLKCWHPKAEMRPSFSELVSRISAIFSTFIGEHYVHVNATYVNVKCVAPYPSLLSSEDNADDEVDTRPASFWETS
Ribosomal protein S6 kinase alpha-1, sequence (Q15418 whole entry): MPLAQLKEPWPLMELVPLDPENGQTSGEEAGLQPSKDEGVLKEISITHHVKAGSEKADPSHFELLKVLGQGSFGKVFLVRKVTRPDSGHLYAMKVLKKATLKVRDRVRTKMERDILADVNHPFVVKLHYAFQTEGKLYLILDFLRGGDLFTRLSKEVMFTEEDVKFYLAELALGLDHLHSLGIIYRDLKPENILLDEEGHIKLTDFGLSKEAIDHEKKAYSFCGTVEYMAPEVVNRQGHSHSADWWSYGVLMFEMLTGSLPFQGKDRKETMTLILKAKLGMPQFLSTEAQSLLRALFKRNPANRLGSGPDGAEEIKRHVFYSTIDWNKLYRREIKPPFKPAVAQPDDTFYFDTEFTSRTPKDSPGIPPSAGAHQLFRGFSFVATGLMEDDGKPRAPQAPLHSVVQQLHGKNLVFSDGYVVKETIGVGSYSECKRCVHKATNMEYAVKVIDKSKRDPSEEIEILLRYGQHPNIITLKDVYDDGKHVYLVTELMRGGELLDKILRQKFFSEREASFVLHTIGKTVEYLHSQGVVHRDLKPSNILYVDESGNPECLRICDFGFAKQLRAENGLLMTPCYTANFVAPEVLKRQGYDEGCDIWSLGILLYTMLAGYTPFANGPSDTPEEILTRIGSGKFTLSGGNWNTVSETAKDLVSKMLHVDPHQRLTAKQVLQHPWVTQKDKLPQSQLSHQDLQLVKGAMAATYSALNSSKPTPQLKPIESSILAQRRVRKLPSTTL
Insulin-like growth factor 1 receptor, sequence (P08069 31-736 limits assumed): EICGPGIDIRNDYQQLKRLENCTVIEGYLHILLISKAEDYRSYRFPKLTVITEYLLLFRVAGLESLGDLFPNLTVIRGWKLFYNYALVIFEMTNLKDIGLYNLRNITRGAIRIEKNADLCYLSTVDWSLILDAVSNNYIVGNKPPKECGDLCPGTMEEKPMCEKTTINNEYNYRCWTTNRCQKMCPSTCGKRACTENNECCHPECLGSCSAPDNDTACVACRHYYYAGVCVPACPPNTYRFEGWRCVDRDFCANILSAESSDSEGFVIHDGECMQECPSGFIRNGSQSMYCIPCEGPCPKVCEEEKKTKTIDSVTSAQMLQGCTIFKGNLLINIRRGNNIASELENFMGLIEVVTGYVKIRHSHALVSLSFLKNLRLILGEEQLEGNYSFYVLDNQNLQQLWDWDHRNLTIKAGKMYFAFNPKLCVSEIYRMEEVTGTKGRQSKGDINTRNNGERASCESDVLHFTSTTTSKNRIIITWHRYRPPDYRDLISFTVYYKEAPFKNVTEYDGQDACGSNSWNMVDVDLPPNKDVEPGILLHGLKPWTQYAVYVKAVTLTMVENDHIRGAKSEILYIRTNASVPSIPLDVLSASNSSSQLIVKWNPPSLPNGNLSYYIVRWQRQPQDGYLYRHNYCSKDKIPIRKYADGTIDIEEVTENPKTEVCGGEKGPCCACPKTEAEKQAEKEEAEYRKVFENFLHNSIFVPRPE
Insulin-like growth factor 1 receptor, sequence (P08069 741-1367 limits assumed): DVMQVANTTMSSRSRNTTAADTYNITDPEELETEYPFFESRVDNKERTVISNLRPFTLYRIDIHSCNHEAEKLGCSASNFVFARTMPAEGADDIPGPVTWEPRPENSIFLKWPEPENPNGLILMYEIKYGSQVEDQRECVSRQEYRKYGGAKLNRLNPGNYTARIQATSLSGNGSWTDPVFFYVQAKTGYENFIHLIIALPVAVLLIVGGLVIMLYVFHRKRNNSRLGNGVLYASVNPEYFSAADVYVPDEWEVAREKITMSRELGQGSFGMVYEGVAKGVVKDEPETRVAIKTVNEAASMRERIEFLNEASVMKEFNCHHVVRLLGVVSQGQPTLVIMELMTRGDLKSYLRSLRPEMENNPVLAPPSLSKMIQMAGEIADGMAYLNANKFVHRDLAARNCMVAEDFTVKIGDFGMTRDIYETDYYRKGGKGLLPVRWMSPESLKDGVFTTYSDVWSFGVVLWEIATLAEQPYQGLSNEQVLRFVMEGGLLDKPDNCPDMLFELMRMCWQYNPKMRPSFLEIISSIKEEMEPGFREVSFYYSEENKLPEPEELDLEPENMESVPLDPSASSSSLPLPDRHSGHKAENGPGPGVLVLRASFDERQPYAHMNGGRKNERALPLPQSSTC
Platelet-derived growth factor receptor beta, sequence (P09619 whole entry): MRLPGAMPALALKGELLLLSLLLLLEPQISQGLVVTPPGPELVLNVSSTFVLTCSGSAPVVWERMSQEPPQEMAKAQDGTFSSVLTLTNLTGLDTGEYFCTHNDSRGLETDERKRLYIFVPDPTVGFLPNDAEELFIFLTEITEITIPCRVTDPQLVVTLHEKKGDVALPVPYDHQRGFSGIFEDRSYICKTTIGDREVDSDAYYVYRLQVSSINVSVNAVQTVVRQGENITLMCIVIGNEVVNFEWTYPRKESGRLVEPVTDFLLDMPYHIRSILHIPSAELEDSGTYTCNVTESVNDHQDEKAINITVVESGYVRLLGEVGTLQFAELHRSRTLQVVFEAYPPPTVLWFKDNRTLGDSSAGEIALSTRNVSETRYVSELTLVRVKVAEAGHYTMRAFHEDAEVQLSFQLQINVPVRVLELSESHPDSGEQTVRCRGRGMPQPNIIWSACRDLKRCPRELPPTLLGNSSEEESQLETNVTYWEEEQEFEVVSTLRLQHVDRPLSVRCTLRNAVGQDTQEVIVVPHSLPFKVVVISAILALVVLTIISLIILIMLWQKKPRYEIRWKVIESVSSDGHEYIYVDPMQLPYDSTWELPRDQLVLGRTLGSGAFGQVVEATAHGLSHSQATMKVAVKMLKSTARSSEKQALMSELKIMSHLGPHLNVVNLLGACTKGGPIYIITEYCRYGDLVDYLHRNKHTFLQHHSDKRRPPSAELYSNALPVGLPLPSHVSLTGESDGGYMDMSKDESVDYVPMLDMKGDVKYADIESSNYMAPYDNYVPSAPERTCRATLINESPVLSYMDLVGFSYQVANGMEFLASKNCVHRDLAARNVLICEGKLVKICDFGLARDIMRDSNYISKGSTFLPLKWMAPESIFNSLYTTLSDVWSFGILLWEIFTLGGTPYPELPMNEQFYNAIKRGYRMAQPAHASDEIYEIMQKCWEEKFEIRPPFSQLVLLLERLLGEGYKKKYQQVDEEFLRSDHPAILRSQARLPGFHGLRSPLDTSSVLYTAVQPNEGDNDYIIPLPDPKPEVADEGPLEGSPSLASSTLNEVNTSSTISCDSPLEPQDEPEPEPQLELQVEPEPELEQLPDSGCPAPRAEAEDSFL

CC(C)n1cc(C(=O)Nc2ccc(Oc3ccnc(NC(=O)C4CC4)c3)c(F)c2)c(=O)n(-c2ccc(F)cc2)c1=O
IC50 [1]: > 1 µM
inhibition [2]: Active
IC50 [3]: 0.0008 µM
inhibition [4]: Dose-Dependent Effect
IC50 [5]: > 1 µM
inhibition [6]: Active
IC50 (RT-112): > 10 µM
IC50 [7]: > 1 µM
IC50 (BT-549): > 10 µM
half-life [8]: 13.8 h
IC50 [9]: > 1 µM
IC50 [10]: 0.0009 µM
IC50 [11]: < 0.01 µM
